From ChEMBL document CHEMBL4680133, “Novel nitroimidazole derivatives evaluated for their trypanocidal, cytotoxic, and genotoxic activities” (Eur J Med Chem, 2020) come the findings set out here.

Data set [1] deals with Trypanosoma cruzi. Put plainly: Antitrypanosomal activity against bloodstream form of Trypanosoma cruzi Y trypomastigotes infected in African green monkey Vero cells assessed as increase in parasite lysis measured after 24 hrs by Neubauer chamber method. Type of data set: functional, organism-based.
In data set [2] the test system is Trypanosoma cruzi. Nature of the data set: Antitrypanosomal activity against Trypanosoma cruzi Y axenic amastigotes infected in African green monkey Vero cells after 24 hrs by MTT assay. The class given is functional, organism-based. (Formazan colour is commonly taken as a measure of viable cells.)
Data set [3] in a line: Selectivity index, ratio of GI50 for human HepG2 cells assessed as reduction in cell viability measured after 24 hrs by WST1 assay to IC50 for antitrypanosomal activity against bloodstream form of Trypanosoma cruzi Y trypomastigotes infected in African green monkey Vero cells. Type of data set: toxicity. The settings on record: read-out: Selectivity Index.
A short description of data set [4]: Selectivity index, ratio of GI50 for mouse RAW264.7 cells assessed as reduction in cell viability measured after 24 hrs by WST1 assay to IC50 for antitrypanosomal activity against Trypanosoma cruzi Y axenic amastigotes infected in African green monkey Vero cells. Type of data set: toxicity. The settings on record: read-out: Selectivity Index.
The nature of data set [5]: Selectivity index, ratio of GI50 for mouse RAW264.7 cells assessed as reduction in cell viability measured after 24 hrs by WST1 assay to IC50 for antitrypanosomal activity against bloodstream form of Trypanosoma cruzi Y trypomastigotes infected in African green monkey Vero cells. The note with it: read-out: Selectivity Index. Type of data set: toxicity.
A short description of data set [6]: Cytotoxicity against human HepG2 cells assessed as reduction in cell viability measured after 24 hrs by WST1 assay. Type of data set: cell-based.
Data set [7] in a line: Cytotoxicity against mouse RAW264.7 cells assessed as reduction in cell viability measured after 24 hrs by WST1 assay. The class given is cell-based.
The nature of data set [8]: Selectivity index, ratio of GI50 for human HepG2 cells assessed as reduction in cell viability measured after 24 hrs by WST1 assay to IC50 for antitrypanosomal activity against Trypanosoma cruzi Y axenic amastigotes infected in African green monkey Vero cells. The settings on record: read-out: Selectivity Index. The class given is toxicity.
The subject of data set [9] is HepG2. Put plainly: Genotoxicity in human HepG2 assessed as mitotic index at 100 ug/ml measured after 24 hrs by micronucleus test (reference value: 61 to 108). The settings on record: hepg2, 24 h, dose 100 µg/ml. Type of data set: toxicity, cell-based.
Data set [10] deals with HepG2. Put plainly: Genotoxicity in human HepG2 assessed as number of micronucleated cells at 100 ug/ml measured after 24 hrs by micronucleus test (reference value: 14 to 18). The class given is toxicity, cell-based. The note with it: hepg2, 24 h, dose 100 µg/ml.
Data set [11] can be described thus: Genotoxicity in human HepG2 assessed as survival at 100 ug/ml measured after 24 hrs by micronucleus test (reference value: 100%). The settings on record: HepG2 cells, at 100 µg/mL, read-out: Survival. The class given is toxicity, cell-based.

A word on the IC50: it is the midpoint of a concentration-inhibition curve. As usually defined, the GI50 is the concentration giving 50% growth inhibition. Regarding `O=C(Cn1ccnc1[N+](=O)[O-])NCc1ccccc1` [BENZNIDAZOLE], the IC50 with Trypanosoma cruzi [1] came out at 8.8 µM; with Trypanosoma cruzi [2], 8.7 µM. Moreover, the selectivity ratio at 24 h is > 56 in [3], > 57 in data set [4], > 56 in [5] and > 57 in data set [8]. Further, the GI50 at 24 h in data set [6] and in [7] was > 500 µM throughout.

For the compound `Cn1cnc([N+](=O)[O-])c1-n1cc(C2=CCCCC2)nn1`, the IC50 with Trypanosoma cruzi [1] came out at 41.7 µM.

Turning to `c1ccc2c(c1)cc1ccc3cccc4ccc2c1c34` [BENZO[DEF]CHRYSENE], in the data set on HepG2 [9], the Activity_index stood at 57. In the data set with HepG2 [10], the Activity is 31. For the same compound, the viability at 24 h, 100 ug/ml in [11] was found to be 99%.
